Reference: patent US10874743B2, “IRAK degraders and uses thereof” (Kymera Therapeutics, Inc., priority 2017, dated 2020)

Key:
IRAK4 [1] = target: T1, IRAK4 (Homo sapiens, UniProt Q9NWZ3); assay: PBMC degradation assay (western blot, % IRAK4 degraded after 4 hours); format: cell-based; conditions: human PBMCs
T1 sequence (Q9NWZ3 1-460): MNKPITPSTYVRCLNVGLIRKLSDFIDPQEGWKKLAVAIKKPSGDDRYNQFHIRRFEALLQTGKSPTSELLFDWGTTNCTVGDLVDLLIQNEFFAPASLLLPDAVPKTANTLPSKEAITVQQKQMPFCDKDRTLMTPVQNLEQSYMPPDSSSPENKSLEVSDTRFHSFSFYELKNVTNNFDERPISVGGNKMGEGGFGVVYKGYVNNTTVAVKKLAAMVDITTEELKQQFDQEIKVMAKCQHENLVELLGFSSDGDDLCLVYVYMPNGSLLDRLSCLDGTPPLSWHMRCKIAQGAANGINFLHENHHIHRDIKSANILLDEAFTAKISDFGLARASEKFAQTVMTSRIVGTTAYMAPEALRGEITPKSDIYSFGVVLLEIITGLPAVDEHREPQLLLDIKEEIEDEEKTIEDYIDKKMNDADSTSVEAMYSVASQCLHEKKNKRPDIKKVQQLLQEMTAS
Description: Protocol summary of PBMC degradation studies from compound treatment through quantitation.
PBMC culture medium: Human peripheral blood mononuclear cells (PBMCs): RPMI+10% FBS (Heat-inactivated)+1% P/S.
Cells were cultured at a minimum of 2.5×10^6 c/mL. • PBMCs were incubated @ 37° C./5% CO2 and allowed to rest overnight. • Following overnight recovery, a cell count/viability assessment by trypan blue exclusion was performed. Cells densities were adjusted back to 2.5×10^6 c/mL (proceed with plating only if viability >80%). • In a 6 well plate, 2.0 mL of cells were added to each well for a minimum of 5×10^6 CT per treatment condition. Compounds dilutions were prepared from 20 mM stock and were added at a final 1000× dilution (0.1% DMSO concentration). • At the end of treatment, cells were harvested and spun @ 1800 rpm for 5 min. 1×PBS wash and spun again @ 1800 rpm for 5 min. Cell pellets were frozen and stored at −80° C. until further processing. • Lysates were generated by resuspending in lysis buffer. Protein quantification was performed with a BCA kit. • 20 μg of protein were loaded per lane and run on a 26-well 4-12% Bis-Tris SDS-page gel. • Transfers were performed on PVDF membranes using the BioRad Mixed MW turbo program for 7 min. • Membranes were blocked for one hour on a rocker at room temperature. • Primary antibodies were incubated overnight at 4° C. on a rocker. • Membranes were washed 3×TBST, 5 min each. • Secondaries were added and incubated for one hour on a rocker at room temperature. • Membranes were washed 3×TBST, 5 min each and rinsed well with deionized H2O. Membranes were scanned using the Licor Odessey CLx and bands were quantified using Image Studio Lite Version 5.2 software.
PBMC results at 4 hours. The letter codes indicate the percentage of IRAK4 degraded after 4 hours: A (>50% degradation), B (>20-50% degradation) and C (<20% degradation)

IRAK4 [2] = target: T1, IRAK4; assay: THP-1 degradation assay (western blot, % IRAK4 degraded after 24 hours); format: cell-based; parameters: endogenous in cells; conditions: THP-1 cells
Description: Compounds were reconstituted in DMSO to make stock solutions at concentration of 60 mM. THP-1 and OCI-LY10 cells were maintained in RPMI-1640 medium containing 10% FBS, 0.5 μM 2-ME or 20% FBS, 55 μM 2-ME, and 1% L-Glutamine respectively.
Cells were seeded into 6-well plates with 5e6 cells per well. 200 μL of diluted compounds were added to cells to the final concentration of 0.003-10 μM. After 4 or 24 hour-incubation at 37° C., cells were collected into 2 mL Eppendorf tubes and centrifuged at 1,000 rpm for 5 min. The cell pellets were washed with 1×DPBS once and resuspended in 60 μL lysis buffer. The cells were lysed on ice for 10 min, then centrifuged at 14,000 rpm for 10 min at 4° C. and the supernatants were collected for western blots. For THP-1 cells, the lysis buffer contained 40 mM pH 7.4 HEPES, 140 mM NaCl, 2.5 mM EDTA, 1% NP-40, 0.1% SDS, and protease inhibitor cocktail (Roche, Cat. No. 05892791001). For OCI-LY10 cells, RIPAbuffer (Thermo Fisher, 89900) with Halt Protease and Phosphatase Inhibitor Cocktail (Thermo Fisher, 78446) was applied.
The protein concentration of cell lysates was quantified with Pierce™ BCA Protein Assay Kit (Pierce, 23227). Albumin standards at different concentrations were prepared, involving 2,000 ug/mL, 1,500 ug/mL, 1,000 ug/mL, 750 ug/mL, 500 ug/mL, 250 ug/mL, 125 ug/mL, and 25 ug/mL. BCA working reagents were prepared by mixing BCA reagent A with reagent B in 50:1 ratio. 200 μL of the BCA working reagents were added to 25 μL of BCA standard or cell lysates in microplate, and mixed thoroughly on a plate shaker for 30 seconds. After incubation at 37° C. for 30 min, the absorbance of samples at 562 nm were measured with EnVision Plate Reader.
Protein lysates were prepared in NuPAGE™ LDS sample buffer and NuPAGE™ sample reducing agent, and incubated at 95° C. for 5 min. For western blots, 20-25 μg of total proteins were resolved in 4-12% Bis-Tris gels (Introgen, WG1403A) or 10% Bis-Tris Midi gels (Invitrogen, WG1202BOX) running with 1×MOPS SDS running buffer (Invitrogen, NP0001) or 1×MES SDS running buffer (Invitrogen, NP0002). The proteins were transferred to low fluorescence PVDF membranes using the Trans-Blot Turbo Transfer System. Membranes were then blocked in Odyssey blocking buffer at RT for 1 h followed by primary incubation at 4° C. overnight. The primary antibodies were IRAK1 rabbit monoclonal antibody (CST, #4504S, 1:500), IRAK3 rabbit polyclonal antibody (CST, #4369, 1:500), IRAK4 rabbit polyclonal antibody (CST, #4363S, 1:1,000), MyD88 rabbit monoclonal antibody (Abcam, Ab133739, 1:2,000), j3-actin mouse monoclonal antibody (Sigma, A5441, 10,000), and Gapdh mouse monoclonal antibody (Millipore, MAB374, 1:5,000). Membranes were washed three times with 1×TBST, and then incubated with IR Dye 800 CW Goat anti-rabbit (Licor, #926-32211) and IR Dye 700 CW Goat anti-mouse (Licor, #926-68070) secondary antibodies in 1:10,000 dilution at RT for 1 h. The western blot images were obtained using Odyssey Imaging System.
THP-1 results at 24 hours. The letter codes indicate the percentage of IRAK4 degraded after 24 hours: A (>50% degradation), B (>20-50% degradation) and C (<20% degradation)

| Structure (SMILES) | PBMC % IRAK4 Degradation (IRAK4 [1]) | THP-1 24 h % IRAK4 Degradation (IRAK4 [2]) |
| --- | --- | --- |
| NC(=O)c1nn(-c2ccc(C(=O)NCCOCCOCCOCCOCCNc3cccc4c3C(=O)N(C3CCC(=O)NC3=O)C4=O)cc2)cc1NC(=O)c1coc(-c2ccnc(NCC(F)(F)F)c2)n1 (stereo not drawn) [I-53] | A (>50% degradation) | – |
| NC(=O)c1nn(-c2ccc(C(=O)NCCCCCCCCCCCNC(=O)COc3cccc4c3C(=O)N(C3CCC(=O)NC3=O)C4=O)cc2)cc1NC(=O)c1coc(-c2ccnc(NCC(F)(F)F)c2)n1 (stereo not drawn) [I-104] | C (<20% degradation) | – |
| NC(=O)c1nn(-c2ccc(C(=O)NCCCCCNC(=O)COc3cccc4c3C(=O)N(C3CCC(=O)NC3=O)C4=O)cc2)cc1NC(=O)c1coc(-c2ccnc(NCC(F)(F)F)c2)n1 (stereo not drawn) [I-106, N-[3-carbamoyl-1-[4-[5-[[2-[2-(2,6-dioxo-3-piperidyl)-1,3-dioxo-isoindolin-4-yl]oxyacetyl]amino]pentylcarbamoyl]phenyl]pyrazol-4-yl]-2-[2-(2,2,2-trifluoroethylamino)-4-pyridyl]oxazole-4-carboxamide] | A (>50% degradation) | – |
| NC(=O)c1nn(-c2ccc(C(=O)NCCOCCOCCOCCNC(=O)COc3cccc4c3C(=O)N(C3CCC(=O)NC3=O)C4=O)cc2)cc1NC(=O)c1coc(-c2ccnc(NCC(F)(F)F)c2)n1 (stereo not drawn) [I-108] | C (<20% degradation) | – |
| NC(=O)c1nn(-c2ccc(C(=O)NCCCCCCCCNC(=O)COc3cccc4c3C(=O)N(C3CCC(=O)NC3=O)C4=O)cc2)cc1NC(=O)c1coc(-c2ccnc(NCC(F)(F)F)c2)n1 (stereo not drawn) [I-109] | B (>20-50% degradation) | – |
| NC(=O)c1nn(-c2ccc(C(=O)NCCOCCNC(=O)COc3cccc4c3C(=O)N(C3CCC(=O)NC3=O)C4=O)cc2)cc1NC(=O)c1coc(-c2ccnc(NCC(F)(F)F)c2)n1 (stereo not drawn) [I-110] | A (>50% degradation) | – |
| NC(=O)c1nn(-c2ccc(C(=O)NCCCCNC(=O)COc3cccc4c3C(=O)N(C3CCC(=O)NC3=O)C4=O)cc2)cc1NC(=O)c1coc(-c2ccnc(NCC(F)(F)F)c2)n1 (stereo not drawn) [I-111] | B (>20-50% degradation) | – |
| NC(=O)c1nn(-c2ccc(C(=O)NCCCNC(=O)COc3cccc4c3C(=O)N(C3CCC(=O)NC3=O)C4=O)cc2)cc1NC(=O)c1coc(-c2ccnc(NCC(F)(F)F)c2)n1 (stereo not drawn) [I-112] | A (>50% degradation) | – |
| NC(=O)c1nn(-c2ccc(C(=O)NCCOCCCCCOCCNC(=O)COc3cccc4c3C(=O)N(C3CCC(=O)NC3=O)C4=O)cc2)cc1NC(=O)c1coc(-c2ccnc(NCC(F)(F)F)c2)n1 (stereo not drawn) [I-116, N-(3-carbamoyl-1-(4-((2-((5-(2-(2-((2-(2,6-dioxopiperidin-3-yl)-1,3-dioxoisoindolin-4-yl)oxy)acetamido)ethoxy)pentyl)oxy)ethyl)carbamoyl)phenyl)-1H-pyrazol-4-yl)-2-(2-((2,2,2-trifluoroethyl)amino)pyridin-4-yl)oxazole-4-carboxamide] | A (>50% degradation) | – |
| NC(=O)c1nn(-c2ccc(C(=O)NCCOCCOCCNc3cccc4c3CN(C3CCC(=O)NC3=O)C4=O)cc2)cc1NC(=O)c1coc(-c2ccnc(NCC(F)(F)F)c2)n1 (stereo not drawn) [I-117, N-(3-carbamoyl-1-(4-((2-(2-(2-((2-(2,6-dioxopiperidin-3-yl)-1-oxoisoindolin-4-yl)amino)ethoxy)ethoxy)ethyl)carbamoyl)phenyl)-1H-pyrazol-4-yl)-2-(2-((2,2,2-trifluoroethyl)amino)pyridin-4-yl)oxazole-4-carboxamide] | A (>50% degradation) | – |
| NC(=O)c1nn(-c2ccc(C(=O)NCCOCCOCCOCCNc3cccc4c3C(=O)N(C3CCC(=O)NC3=O)C4=O)cc2)cc1NC(=O)c1coc(-c2ccnc(NCC(F)(F)F)c2)n1 (stereo not drawn) [I-128] | A (>50% degradation) | – |
| NC(=O)c1nn(-c2ccc(C(=O)NCCOCCNc3cccc4c3C(=O)N(C3CCC(=O)NC3=O)C4=O)cc2)cc1NC(=O)c1coc(-c2ccnc(NCC(F)(F)F)c2)n1 (stereo not drawn) [I-130] | A (>50% degradation) | – |
| NC(=O)c1nn(-c2ccc(C(=O)NCCCCCCCCCCCNc3cccc4c3C(=O)N(C3CCC(=O)NC3=O)C4=O)cc2)cc1NC(=O)c1coc(-c2ccnc(NCC(F)(F)F)c2)n1 (stereo not drawn) [I-133] | B (>20-50% degradation) | – |
| O=C1CCC(N2C(=O)c3cccc(NCCOCCOCCNC(=O)c4ccc(-n5cc(NC(=O)c6coc(-c7ccnc(NCC(F)(F)F)c7)n6)c(C(F)(F)F)n5)cc4)c3C2=O)C(=O)N1 (stereo not drawn) [I-134] | C (<20% degradation) | – |
| NC(=O)c1nn(-c2ccc(C(=O)NCCCOCCCNc3cccc4c3C(=O)N(C3CCC(=O)NC3=O)C4=O)cc2)cc1NC(=O)c1coc(-c2ccnc(NCC(F)(F)F)c2)n1 (stereo not drawn) [I-141] | A (>50% degradation) | – |
| COc1cc(Nc2nc(N[C@H]3CCCC[C@H]3N)n3ccnc3c2C(N)=O)cc(OCCOCCOCCOCCOCCNc2cccc3c2C(=O)N(C2CCC(=O)NC2=O)C3=O)c1 (stereo partly drawn) [I-199] | – | C (<20% degradation) |
| COc1cc(Nc2nc(N[C@H]3CCCC[C@H]3N)n3ccnc3c2C(N)=O)cc(OC)c1OCCOCCOCCOCCNc1cccc2c1C(=O)N(C1CCC(=O)NC1=O)C2=O (stereo partly drawn) [I-200, 5-(((1S,2R)-2-aminocyclohexyl)amino)-7-((4-(2-(2-(2-(2-((2-(2,6-dioxopiperidin-3-yl)-1,3-dioxoisoindolin-4-yl)amino)ethoxy)ethoxy)ethoxy)ethoxy)-3,5-dimethoxyphenyl)amino)imidazo[1,2-c]pyrimidine-8-carboxamide] | – | C (<20% degradation) |
| COc1cc2c(cc1OCCOCCOCCOCCOCCOCC(=O)N[C@H](C(=O)N1C[C@H](O)C[C@H]1C(=O)NCc1ccc(-c3scnc3C)cc1)C(C)(C)C)ncc1c3ccc(C#N)cc3[nH]c21 [I-203] | – | B (>20-50% degradation) |
